Where only a bound is given, the exact number is not on record here.

One may read the IC50 as the concentration at which inhibition is half-maximal.

Chain of human ACSS2 protein (Q9NR19 whole entry): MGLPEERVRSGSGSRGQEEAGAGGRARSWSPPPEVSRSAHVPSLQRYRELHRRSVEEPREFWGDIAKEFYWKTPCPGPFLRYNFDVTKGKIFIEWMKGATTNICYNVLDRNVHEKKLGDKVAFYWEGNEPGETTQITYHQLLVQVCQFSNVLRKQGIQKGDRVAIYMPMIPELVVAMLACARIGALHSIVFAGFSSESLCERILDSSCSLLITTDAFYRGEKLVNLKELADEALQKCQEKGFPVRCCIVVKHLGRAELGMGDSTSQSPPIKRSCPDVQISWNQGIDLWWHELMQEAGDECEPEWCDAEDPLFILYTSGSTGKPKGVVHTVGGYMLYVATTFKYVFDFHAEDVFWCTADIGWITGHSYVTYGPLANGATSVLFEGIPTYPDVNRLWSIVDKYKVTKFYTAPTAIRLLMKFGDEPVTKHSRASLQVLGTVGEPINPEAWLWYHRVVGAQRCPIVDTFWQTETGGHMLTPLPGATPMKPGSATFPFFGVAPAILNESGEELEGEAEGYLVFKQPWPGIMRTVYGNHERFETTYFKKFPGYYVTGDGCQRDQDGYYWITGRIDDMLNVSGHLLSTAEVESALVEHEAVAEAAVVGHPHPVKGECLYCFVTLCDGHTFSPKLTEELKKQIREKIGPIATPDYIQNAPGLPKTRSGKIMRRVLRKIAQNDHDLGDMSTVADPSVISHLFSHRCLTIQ

The test addresses human ACSS2 protein (Homo sapiens (Human), UniProt Q9NR19). Briefly: ACSS2 Cell-Free Activity Assay (Cell-Free IC50). The settings on record: 10 nM human ACSS2 protein, 90 minutes at 37 C, pyrophosphatase-coupled, Biomol Green absorbance at 620 nm; read-out: ACSS2 Biochemical IC50. The source says: ACSS2 Cell-Free Activity Assay (Cell-Free IC50)
For `CCCc1cc(N2N=C(C)C(C(=O)Nc3cccc(C(F)(F)CC)c3)C2=O)cc(-c2ccccc2)c1OC` (centres unmarked) [Compound 225, N-(3-(1,1-difluoropropyl)phenyl)-1-(6-methoxy-5-propyl-[1,1’-biphenyl]-3-yl)-3-methyl-5-oxo-4,5-dihydro-1H-pyrazole-4-carboxamide], the IC50 lay within 1 to 100 nM. As for `CCC(F)(F)c1cccc(NC(=O)c2cc(C)nc(-c3cc(C)cc(-c4ccccc4)c3)n2)c1` [Compound 226, N-(3-(1,1-difluoropropyl)phenyl)-6-methyl-2-(5-methyl-[1,1′-biphenyl]-3-yl)pyrimidine-4-carboxamide], the figure is above 100 nM; as for `CCC(F)(F)c1cccc(NC(=O)c2nc(-c3ccc(OC(F)F)cn3)[nH]c2C)c1` [Compound 227, 2-(5-(difluoromethoxy)pyridin-2-yl)-N-(3-(1,1-difluoropropyl)phenyl)-5-methyl-1H-imidazole-4-carboxamide], above 100 nM.

For the molecule `COc1c(Cc2ccc(O)cc2)cc(N2N=C(C)C(C(=O)Nc3cccc(C(C)(F)F)c3)C2=O)cc1-c1ccccc1` (centres unmarked) [Compound 228, N-(3-(1,1-difluoroethyl)phenyl)-1-(5-(4-hydroxybenzyl)-6-methoxy-[1,1′-biphenyl]-3-yl)-3-methyl-5-oxo-4,5-dihydro-1H-pyrazole-4-carboxamide], the IC50 lay within 1 to 100 nM. Turning to `CCC(F)(F)c1cccc(NC(=O)c2c(C)nn(-c3ccc(OC)cc3)c2F)c1` [Compound 229, N-(3-(1,1-difluoropropyl)phenyl)-5-fluoro-1-(4-methoxyphenyl)-3-methyl-1H-pyrazole-4-carboxamide], the IC50 was 1 to 100 nM. As for `CCC(F)(F)c1cccc(NC(=O)c2c(C)nn(-c3ccc(OC)cc3)c2C(C)=O)c1` [Compound 230, 5-acetyl-N-(3-(1,1-difluoropropyl)phenyl)-1-(4-methoxyphenyl)-3-methyl-1H-pyrazole-4-carboxamide], the figure is above 100 nM; as for `CCC(F)(F)c1cccc(NC(=O)c2c(C)nn(-c3ccc(OC)cc3)c2Cl)c1` [Compound 231, 5-chloro-N-(3-(1,1-difluoropropyl)phenyl)-1-(4-methoxyphenyl)-3-methyl-1H-pyrazole-4-carboxamide], above 100 nM. With `CCC(F)(F)c1cccc(NC(=O)c2n[nH]c(-c3ccc(OC)cc3)c2C(C)=O)c1` [Compound 232, 4-acetyl-N-(3-(1,1-difluoropropyl)phenyl)-5-(4-methoxyphenyl)-1 H-pyrazole-3-carboxamide], the IC50 is above 100 nM. As for `CCC(F)(F)c1cccc(NC(=O)c2n[nH]c(-c3ccc(OC)cc3)c2Br)c1` [Compound 233], the figure is above 100 nM; as for `CCC(F)(F)c1cccc(NC(=O)c2c(C)nn(-c3ccc(OC)cc3)c2C(=O)OC)c1` [Compound 234, methyl 4-((3-(1,1-difluoropropyl)phenyl)carbamoyl)-1-(4-methoxyphenyl)-3-methyl-1H-pyrazole-5-carboxylate], above 100 nM; as for `CCC(F)(F)c1cccc(NC(=O)c2c(C)[nH]c(-c3ccc(OC)cc3)c2O)c1` [Compound 235, N-(3-(1,1-difluoropropyl)phenyl)-4-hydroxy-5-(4-methoxyphenyl)-2-methyl-1H-pyrrole-3-carboxamide], above 100 nM. Under `CCC(F)(F)c1cccc(NC(=O)C2C(=O)N(c3cc(Cc4ccc(Cl)cc4)c(OC)c(-c4ccccc4)c3)N=C2C)c1` (centres unmarked) [Compound 236, 1-(5-(4-chlorobenzyl)-6-methoxy-[1,1′-biphenyl]-3-yl)-N-(3-(1,1-difluoropropyl)phenyl)-3-methyl-5-oxo-4,5-dihydro-1H-pyrazole-4-carboxamide] stands 1 to 100 nM; under `COc1ccc(-c2ncc(C)c(C(=O)Nc3cccc(C(C)(F)F)c3)n2)cc1` [Compound 247, N-(3-(1,1-difluoroethyl)phenyl)-2-(4-methoxyphenyl)-5-methylpyrimidine-4-carboxamide], 1 to 100 nM; under `CCC(F)(F)c1cccc(NC(=O)c2c(C)[nH]c(-c3ccc(OC)cc3)[n+]2[O-])c1` [Compound 248, 4-((3-(1,1-difluoropropyl)phenyl)carbamoyl)-2-(4-methoxyphenyl)-5-methyl-1H-imidazole 3-oxide], below 1 nM. Under `CCC(F)(F)c1cccc(NC(=O)c2c(C)[nH]c(-c3ccc(OC)c(-c4ncccc4C)c3)[n+]2[O-])c1` [Compound 249, 4-((3-(1,1-difluoropropyl)phenyl)carbamoyl)-2-(4-methoxy-3-(3-methylpyridin-2-yl)phenyl)-5-methyl-1H-imidazole 3-oxide] stands below 1 nM; under `CCC(F)(F)c1cccc(NC(=O)c2c(C)oc(-c3ccc(OC)cc3)[n+]2[O-])c1` [Compound 250, 4-((3-(1,1-difluoropropyl)phenyl)carbamoyl)-2-(4-methoxyphenyl)-5-methyloxazole 3-oxide], above 100 nM. `CCC(F)(F)c1cccc(NC(=O)c2c(C)oc(-c3ccc(OC)c(-c4ncccc4C)c3)[n+]2[O-])c1` [Compound 251, 4-((3-(1,1-difluoropropyl)phenyl)carbamoyl)-2-(4-methoxy-3-(3-methylpyridin-2-yl)phenyl)-5-methyloxazole 3-oxide]: the IC50 was above 100 nM. As for `CCC(F)(F)c1cccc(NC(=O)c2c(C)nn(-c3ccc(OC)cc3)[n+]2[O-])c1` [Compound 253, 5-((3-(1,1-difluoropropyl)phenyl)carbamoyl)-2-(4-methoxyphenyl)-4-methyl-2H-1,2,3-triazole 1-oxide], the figure is above 100 nM. On to `CCC(F)(F)c1cccc(NC(=O)c2cc(C)nc(-c3ccc(OC(F)F)cn3)c2)c1` [Compound 257, 5'-(difluoromethoxy)-N-(3-(1,1-difluoropropyl)phenyl)-6-methyl-[2,2′-bipyridine]-4-carboxamide], for which the IC50 is above 100 nM. Under `Cc1oc(-c2ccc(OC(F)F)c(-c3ccccn3)c2)nc1C(=O)Nc1cccc(C(C)(F)F)c1` [Compound 258, N-(3-(1,1-difluoroethyl)phenyl)-2-(4-(difluoromethoxy)-3-(pyridin-2-yl)phenyl)-5-methyloxazole-4-carboxamide] stands above 100 nM. As for `CCC(F)(F)c1cccc(NC(=O)c2nc(-c3ccc(OC(F)F)c(-c4ccccn4)c3)oc2C)c1` [Compound 259, 2-(4-(difluoromethoxy)-3-(pyridin-2-yl)phenyl)-N-(3-(1,1-difluoropropyl)phenyl)-5-methyloxazole-4-carboxamide], the figure is above 100 nM; as for `CCC(F)(F)c1cccc(NC(=O)c2nc(-c3ccc(OC(F)F)c(-c4ccccc4)n3)[nH]c2C)c1` [Compound 260, 2-(5-(difluoromethoxy)-6-phenylpyridin-2-yl)-N-(3-(1,1-difluoropropyl)phenyl)-5-methyl-1 H-imidazole-4-carboxamide], above 100 nM. Take `CCC(F)(F)c1cccc(NC(=O)c2c(C)[nH]c3ccc(OC)cc3c2=O)c1` [Compound 272, N-(3-(1,1-difluoropropyl)phenyl)-6-methoxy-2-methyl-4-oxo-1,4-dihydroquinoline-3-carboxamide]: the IC50 fell in the range of 1 to 100 nM. For the molecule `CCC(F)(F)c1cccc(NC(=O)c2c(C)[nH]c3cc(OC)ccc3c2=O)c1` [Compound 273, N-(3-(1,1-difluoropropyl)phenyl)-7-methoxy-2-methyl-4-oxo-1,4-dihydroquinoline-3-carboxamide], the IC50 lay in the range of 1 to 100 nM. Turning to `CCC(F)(F)c1cccc(NC(=O)C2CCN(Cc3ccc(OC)cc3)C(c3ccc(OC)cc3)C2O)c1` (centres unmarked) [Compound 275, N-(3-(1,1-difluoropropyl)phenyl)-3-hydroxy-1-(4-methoxybenzyl)-2-(4-methoxyphenyl)piperidine-4-carboxamide], the IC50 is above 100 nM. “N-(3-(1,1-difluoroethyl)phenyl)-2-(6-(difluoromethoxy)-[1,1′-biphenyl]-3-yl)-4-methyloxazole-5-carboxamide [Compound 115]”: the IC50 was above 100 nM.

(Values after patent publication US12441689B2 (EpiVario, Inc., priority 2019, dated 2025).)
